Test results from US20100048657A1, “CONTROL OF MALIGNANT CELLS PROLIFERATION THROUGH THE INHIBITION OF CASEIN KINASE 2” (CLEVELAND STATE UNIVERSITY, priority 2006, published 2010).

Tests used:
Type in all cases: cell-based, human
MEG-01 cells [1] = assay: Apoptosis assay by flow cytometry with AnnexinV-FITC and PI; settings: for early apoptotic cells (FL1H+, FL3H−) versus control untreated (DMSO): 72 hours; for early apoptotic cells (FL1H+, FL3H−) versus control untreated (DMSO) / total apoptotic cells (late plus early) versus control untreated (DMSO): p<0.01; for cytotoxicity: MEG-01 cells
Procedure: For induction of typical apoptosis, cells were cultured with 1 μM Staurosporine (Sigma-Aldrich, cat. # S6942) for 6 hours as recommended in the protocol from the provider. Next the Staurosporine treated cells were stained as follows: (1) with PI, (2) with AnnexinV-FITC and (3) both PI and AnnexinV-FITC in order to have the brightest controls for compensation and proper collection of the flow cytometry data. Cell necrosis was induced by heat shock (65° C. for 30 minutes). Controls for necrosis were stained in the same way as for the Staurosporine treated cells.
In order to establish the effect of the treatments on the apoptosis levels, the non-treated cells (as well as the mock control DMSO) were considered as a control, stained with PI and AnnexinV-FITC and the unstained cells, grown for the same length of treatment. The unstained control signal was subtracted by gating from the stained control and the rest of stained samples, to get only the positive stained cells signal. The stained control, both PI and AnnexinV-FITC labeled, was then used as the reference in establishing the level of apoptosis induced by the treatments.
Samples contained three cell populations of different size and shape and data was collected on logarithmic modes. AnnexinV-FITC corresponds to FL1H channel, and PI to FL3H or FL2H channels. When needed, compensation was done to remove any spillover between the channels. In addition, proper gating was done to characterize each cell population. The population of cells high on FSC and SSC, identified as large, non-granulated particles corresponds to MEG-01 cells. This population is involved in the proplatelets formation and terminal phase of megakaryocytopoiesis and in thrombocytopoiesis. MEG-01 gate is the one of interest in estimating the apoptosis level induced by the treatments.
The Apoptosis AnnexinV-FITC and PI kit from BD Biosciences, CA, USA was used. 105-106 cells were stained with 50 μg/ml propidium iodide (PI) and with 0.5 μg/ml FITC-labeled Annexin V using the staining protocol provided by the supplier. Briefly, cells were counted using a Neubauer hemacytometer, then washed and resuspended in the appropriate amount of AnnexinV-binding buffer 1× (provided in the kit), in order to have the most […] in 100 μl. Then it was used further, as the total reaction volume 100 μl (containing 10^6 cells) to which PI and AnnexinV-FITC was added. Incubation was done for 15 minutes in dark at room temperature. Samples were then analyzed immediately by flow cytometry.
With reference to FIGS. 5-9, apoptosis flow cytometry (AnnexinV-FITC corresponding to FL1H and PI corresponding to FL3H) is depicted. Analyzed and graphed values correspond to frequencies of the parent obtained with FlowJo software version 6.2, after quadrant gating. […] In FIG. 5, apoptotic cells, percentages (FL1H+, FL3H−), after 24 hours of treatment with CK2α inhibitors are depicted. Left bar represents Control untreated (DMSO), middle bar represents DMAT 20 μM treatment and right bar represents TBB 50 μM treatment. The MEG-01 cells were treated for a period of 24 hours. […] Left column represents the Control untreated (DMSO), middle bar represents DMAT 20 μM treatment and right bar represents TBB 50 μM treatment. The MEG-01 cells were treated for a period of 72 hours. […] Left bar represents the Control untreated (DMSO), middle bar represents DMAT 20 μM treatment and right bar represents TBB 50 μM treatment. The MEG-01 cells were treated for a period of 96 hours. […] FIG. 8 illustrates control untreated (DMSO) stained for both Annexin V-FITC and PI, after 24 hours.

MEG-01 cells [2] = assay: DNA content assay with PI and RNAase A; settings: 10 μM, 4 days
[3] = system: αIIbβ3 integrin expression on MEG-01 cells; assay: RPE-CD41a flow cytometric immunophenotyping (maturation)
From the text: CD41a is the antigen for αIIbβ3 complex and it is found on platelets and platelet precursors, including MEG-1 cell line (Ogura et al., 1985; Zunino et al., 2001). It acts as a receptor for fibrinogen, von Willebrand factor, fibronectin, and vitronectin, and it mediates platelet adhesion and aggregation. αIIbβ3 complex is a marker of differentiation for megakaryocytes (as an increase in the fluorescence of stained cells corresponds to more αIIbβ3 receptor expression and differentiation towards platelets production) and it is simply a marker for the platelets. CD41a is conjugated with R-Phytocoerthrin (RPE), in order to be used in flow cytometry experiments. The staining protocol provided by BD Biosciences was followed. Briefly, cells were washed and resuspended in 1×PBS with 0.1% FBS, 0.01% NaN3, and 0.22 μm filtered buffer. Cells were counted and adjusted to be 10^6 cells/ml and 20 μl of RPE-CD41a was used for 180 μl cell suspension.
RPE conjugated stained cells were collected on FL2H channel and gating on populations was done on FSC and SSC logarithmic modes. […]
Regarding FIGS. 16-20, maturation (differentiation) of MEG-01 cells is described. […] Control untreated unstained—plot A, control untreated stained—plot B, 10 μM DMAT—plot C, 25 μM TBB—plot D, 1 nM PMA treatments—plot E. FIG. 18 represents total percentage relative fluorescence for RPE-CD41a immunophenotyping. […]

[4] = system: fibrinogen receptor expression on MEG-01 cells; assay: Fibrinogen-Alexa Fluor 488 binding to MEG-01 cells; settings: 10 μM
Procedure: RPE conjugated stained cells were collected on FL2H channel and gating on populations was done on FSC and SSC logarithmic modes. The unstained control signal was subtracted from the stained cells signal, in order to measure the staining of the cells without background noise. Similar staining was done for Fibrinogen-Alexa Fluor 488 (300 nM). Cells were collected on FL1H channel and gating on the interest population was done on FSC and SSC logarithmic modes. Again, the unstained control signal was subtracted from the stained cells signal, in order to measure the staining of the cells without background noise.
Regarding FIGS. 16-20, maturation (differentiation) of MEG-01 cells is described. In FIG. 16, RPECD41a (αIIbβ3 expression) staining for DMAT treated cells (gate MEG-01) is depicted, with control untreated unstained—plot A, Control untreated stained (RPE-CD41a)—plot B, DMAT 10 μM—plot D, DMAT 15 μM—plot C, DMAT 20 μM—plot E. For FIG. 17, RPECD41a (αIIbβ3 expression) staining for DMAT, TBB and PMA (gate MEG-01) is shown. Control untreated unstained—plot A, control untreated stained—plot B, 10 μM DMAT—plot C, 25 μM TBB—plot D, 1 nM PMA treatments—plot E. FIG. 18 represents total percentage relative fluorescence for RPE-CD41a immunophenotyping. […]

| Compound | apoptosis versus non-treated control (MEG-01 cells [1]; 50 μM, 24 hours, p<0.05) | early apoptotic cells (FL1H+, FL3H−) versus control untreated (DMSO) (MEG-01 cells [1]; 50 μM) | total apoptotic cells (late plus early) versus control untreated (DMSO) (MEG-01 cells [1]; 50 μM, 96 hours) | cytotoxicity (MEG-01 cells [1]) | apoptosis (MEG-01 cells [1]; 10 μM, 24 hours) | apoptosis versus non-treated control (MEG-01 cells [1]; 20 μM, 24 hours) | early apoptotic cells (FL1H+, FL3H−) versus control untreated (DMSO) (MEG-01 cells [1]; 20 μM) | total apoptotic cells (late plus early) versus control untreated (DMSO) (MEG-01 cells [1]; 20 μM, 96 hours) | apoptosis compared with TBB (MEG-01 cells [1]; DMAT 20 μM versus TBB 50 μM, 96 hours) | ploidy (DNA content) (MEG-01 cells [2]) | maturation level (RPE-CD41a, αIIbβ3 expression) ([3]; 10 μM) | maturation level (RPE-CD41a, αIIbβ3 expression) ([3]; 20 μM, compared with 10 μM) | fibrinogen-Alexa Fluor 488 binding to MEG-01 cells versus untreated controls [4] |
| --- | --- | --- | --- | --- | --- | --- | --- | --- | --- | --- | --- | --- | --- |
| Brc1c(Br)c(Br)c2[nH]nnc2c1Br [TBB, 4,5,6,7-tetrabromobenzotriazole] | significant apoptosis | significant apoptosis after 72 hours | significant apoptosis after 96 hours | without being cytotoxic | – | – | – | – | – | – | – | – | – |
| CN(C)c1nc2c(Br)c(Br)c(Br)c(Br)c2[nH]1 [DMAT, 2-dimethylamino-4,5,6,7-tetrabromo-1H-benzimidazole] | – | – | – | without being cytotoxic | induced apoptosis | extremely significant apoptosis | significant apoptosis after 72 hours | significant apoptosis after 96 hours | induces more apoptosis at a lower concentration than the less specific inhibitor (TBB) | higher than 2N | very significant maturation levels versus control untreated | slight increase in the maturation level | bind significantly better fibrinogen-Alexa Fluor 488 |
